Experimental data taken from ChEMBL document CHEMBL1124833, “Topically active carbonic anhydrase inhibitors. 3. Benzofuran- and indole-2-sulfonamides” (J Med Chem, 1990).
≈ marks a conversion by molar mass, not a printed value.

Tests used:
Carbonic anhydrase 2 = Carbonic anhydrase 2 (Homo sapiens, UniProt P00918)
Description: In vitro inhibition of human carbonic anhydrase II (0.1 nM).

[1] = Extent of reaction with 20 equiv of reduced glutathione (GSH) in 20 hours at pH 7.4 and 37 degree C
[2] = Extent of reaction with 5 equiv of reduced glutathione (GSH) between 16 and 22 hours at pH 7.4 and 37 degree C
[3] = Solubility; assay type: physicochemical; conditions: read-out: S
Oryctolagus cuniculus [4] = assay: METD(minimum effective topical dose of the compound) for ocular hypotensive activity in alpha-CT-rabbits; assay type: functional, Eye
Oryctolagus cuniculus [5] = assay: In vivo intraocular pressure reduction was determined in rabbits after effective topical dose (duration expressed as number of time points, P<=0.05); assay type: functional, Eye
Cavia porcellus [6] = species: Cavia porcellus; assay: Number of animals showing dermal sensitization/ number of animals tested in Magnusson-Kligman assay; 8/19; assay type: functional
Cavia porcellus [7] = species: Cavia porcellus; assay: Number of animals showing dermal sensitization/ number of animals tested in Magnusson-Kligman assay.; assay type: functional
Cavia porcellus [8] = species: Cavia porcellus; assay: Number of animals showing dermal sensitization/ number of animals tested in Magnusson-Kligman assay; 15/40; assay type: functional

In the case of `Nc1ccc2cc(S(N)(=O)=O)oc2c1`, the IC50 (Carbonic anhydrase 2) is reported as 25 nM, the GSH [1] is reported as 17% and the GSH [2] is reported as 11%. It also gave a solubility [3] of 80 µg/mL (≈ 377 µM).
Compound `COc1ccc2cc(S(N)(=O)=O)n(S(=O)(=O)c3ccccc3)c2c1` has an IC50 (Carbonic anhydrase 2) of over 10000 nM.
Compound `COc1ccc2[nH]c(S(N)(=O)=O)cc2c1` has an IC50 (Carbonic anhydrase 2) of 16 nM and a solubility [3] of 150 µg/mL (≈ 663 µM).
For `COc1ccc2cc(S(N)(=O)=O)n(C)c2c1`, the IC50 (Carbonic anhydrase 2) was 110 nM, the GSH [1] was 37% and the solubility [3] was 40 µg/mL (≈ 166 µM).
For `CC(C)(C)C(=O)Oc1ccc2cc(S(N)(=O)=O)oc2c1`, the METD (Oryctolagus cuniculus [4]) was 0.5% and the “Max IOP reduction” value (Oryctolagus cuniculus [5]) was -5.3 mmHg.
With `COc1ccc2cc(S(N)(=O)=O)[nH]c2c1` the IC50 (Carbonic anhydrase 2) was 60 nM and the solubility [3] was 520 µg/mL (≈ 2300 µM).
`COc1ccc2cc(S(N)(=O)=O)oc2c1` showed an IC50 (Carbonic anhydrase 2) of 15 nM.
With `CC(=O)Oc1ccc2cc(S(N)(=O)=O)oc2c1` the METD (Oryctolagus cuniculus [4]) was 0.5%, the IC50 (Carbonic anhydrase 2) was 5.5 nM and the “Max IOP reduction” value (Oryctolagus cuniculus [5]) was -8.8 mmHg.
`NS(=O)(=O)c1cc2ccc(O)cc2o1` gave an METD (Oryctolagus cuniculus [4]) of 0.5%, an IC50 (Carbonic anhydrase 2) of 11 nM and a GSH [1] of 23%. The GSH [2] was 4.9%, the No. of animals (Cavia porcellus [6]) was 8 and the “Max IOP reduction” value (Oryctolagus cuniculus [5]) was -5.2 mmHg. For the same compound, the solubility [3] was 2800 µg/mL (≈ 13100 µM).
Work on `NS(=O)(=O)c1cc2cc3c(cc2[nH]1)OCO3` yielded an IC50 (Carbonic anhydrase 2) of 25 nM and a solubility [3] of 50 µg/mL (≈ 208 µM).
`COc1ccc2oc(S(N)(=O)=O)cc2c1` showed an IC50 (Carbonic anhydrase 2) of 5.1 nM, a GSH [1] of 10% and a solubility [3] of 540 µg/mL (≈ 2380 µM).
Work on `Cc1c(S(N)(=O)=O)oc2cc(O)ccc12` yielded an IC50 (Carbonic anhydrase 2) of 210 nM and a GSH [1] of 47%.
`Nc1ccc2oc(S(N)(=O)=O)cc2c1` showed an METD (Oryctolagus cuniculus [4]) of 0.5%, an IC50 (Carbonic anhydrase 2) of 9 nM and a GSH [2] of 11%. For the same compound, the “Max IOP reduction” value (Oryctolagus cuniculus [5]) was -6 mmHg and the solubility [3] was 280 µg/mL (≈ 1320 µM).
`NS(=O)(=O)c1cc2ccc(O)cc2[nH]1` showed an METD (Oryctolagus cuniculus [4]) of 0.5%, an IC50 (Carbonic anhydrase 2) of 30 nM and a GSH [1] of 17%. For the same compound, the GSH [2] was 2.5%, the “Max IOP reduction” value (Oryctolagus cuniculus [5]) was -5 mmHg and the solubility [3] was 4800 µg/mL (≈ 22600 µM).
For `CC(=O)Oc1ccc2oc(S(N)(=O)=O)cc2c1`, the IC50 (Carbonic anhydrase 2) was 6.5 nM, the Max IOP reduction (Oryctolagus cuniculus [5]) was -5.7 mmHg and the solubility [3] was 190 µg/mL (≈ 744 µM).
`CC(=O)Oc1ccc2[nH]c(S(N)(=O)=O)cc2c1` gave an IC50 (Carbonic anhydrase 2) of 11 nM and a solubility [3] of 220 µg/mL (≈ 865 µM).
For `CC(=O)Oc1ccc2cc(S(N)(=O)=O)sc2c1`, the METD (Oryctolagus cuniculus [4]) was 0.1% and the “Max IOP reduction” value (Oryctolagus cuniculus [5]) was -5.3 mmHg.
For `CC(C)(C)C(=O)Oc1ccc2oc(S(N)(=O)=O)cc2c1`, the IC50 (Carbonic anhydrase 2) was 3 nM and the GSH [2] was 3.4%.
`NS(=O)(=O)c1cc2ccccc2[nH]1` showed an IC50 (Carbonic anhydrase 2) of 45 nM, a GSH [2] of 0% and a solubility [3] of 850 µg/mL (≈ 4330 µM).
With `NS(=O)(=O)c1cc2ccccc2o1` the IC50 (Carbonic anhydrase 2) was 8 nM, the GSH [1] was 10% and the GSH [2] was 0%. It also gave a solubility [3] of 480 µg/mL (≈ 2430 µM).
In the case of `NS(=O)(=O)c1cc2ccc(O)cc2s1`, the METD (Oryctolagus cuniculus [4]) is reported as 0.05%, the No. of animals (Cavia porcellus [7]) is reported as 0 and the GSH [1] is reported as 2.9%. For the same compound, the GSH [2] was 0%, the “Max IOP reduction” value (Oryctolagus cuniculus [5]) was -5.5 mmHg and the solubility [3] was 430 µg/mL (≈ 1880 µM).
Work on `NS(=O)(=O)c1cc2cc(O)ccc2o1` yielded an METD (Oryctolagus cuniculus [4]) of 0.1%, an IC50 (Carbonic anhydrase 2) of 6.5 nM and a No. of animals (Cavia porcellus [8]) of 15. The GSH [1] was 9%, the GSH [2] was 4% and the “Max IOP reduction” value (Oryctolagus cuniculus [5]) was -6 mmHg. The solubility [3] was 2100 µg/mL (≈ 9850 µM).
For `NS(=O)(=O)c1cc2cc(O)ccc2[nH]1`, the METD (Oryctolagus cuniculus [4]) was 0.1%, the No. of animals (Cavia porcellus [7]) was 19 and the IC50 (Carbonic anhydrase 2) was 22 nM. For the same compound, the GSH [1] was 13%, the GSH [2] was 0.7% and the “Max IOP reduction” value (Oryctolagus cuniculus [5]) was -7.5 mmHg. It also gave a solubility [3] of 1900 µg/mL (≈ 8950 µM).
`CC(=O)Oc1ccc2cc(S(N)(=O)=O)[nH]c2c1` gave an IC50 (Carbonic anhydrase 2) of 32 nM.
